We go through 31 molecules from EP1038880B1, “Androstanes and pregnanes for allosteric modulation of GABA receptor” (priority 1994, dated 1995).

This experiment deals with GR complex. Put plainly: [35S]TBPS binding assay (inhibition of [35S]TBPS binding, cerebral cortex P2 homogenate). Also noted: species or system rat. To be noted: for IC50: 2 nM [35S]TBPS, rat cerebral cortex P2 homogenate; for IMAX: maximum inhibition of [35S]TBPS binding. How it is done: We performed several experiments to determine the nature of the modulation of [^35S]TBPS as affected by the compounds of the invention.
These procedures were performed as follows:
Brains from male Sprague-Dawley rats were removed immediately following sacrifice and the cerebral cortices dissected over ice. […] Briefly, the cortices were gently homogenized in 0.32 M sucrose followed by centrifugation at 1000 x g for 10 minutes. The supernatant was collected and centrifuged at 9000 x g for 20 minutes. The resultant P2 pellet was suspended as a 10% (original wet weight/volume) suspension in 50 mM Na/K phosphate buffer (pH 7.4) 200 mM NaCl to form the homogenate.
One hundred microliter […] aliquots of the P2 homogenate (0.5 milligrams (mg) protein) were incubated with 2 nanomolar (nM) [^35S]TBPS (70-110 curies/millimole; New England Nuclear, Boston, MA) in the presence or absence of the naturally occurring steroids or their synthetic derivatives to be tested. The tested compounds were dissolved in dimethylsulfoxide (Baker Chem. Co., Phillipsbury, NJ) and added to the incubation mixture in 5 µL aliquots. The incubation mixture was brought to a final volume of 1 mL with buffer. Non-specific binding was defined as binding in the presence of […] TBPS. The effect and specificity of GABA (Sigma Chem. Co., St. Louis, MO) was evaluated by performing all assays in the presence of GABA plus (+)bicuculline (Sigma Chem. Co.). maintained at 25°C for 90 minutes (steady state conditions) were terminated by rapid filtration through glass fiber filters (No. 32, Schleicher and Schuell, Keene, NH). Filter-bound radioactivity was quantitated by liquid scintillation spectrophotometry.
Various compounds were screened to determine their potential as modulators of [^35S]TBPS binding in vitro. These assays were performed in accordance with the above discussed procedures. […] It is an indication of a compound's in vitro potency. Maximum inhibition is an indication of a compound's in vitro efficacy.

The IC50 is the concentration needed to halve the response being measured. “3β-(4'-Aminophenyl)ethynyl-3β-hydroxy-5β-20-one” yielded an IC50 of 22500 nM and an IMAX of 103%.

As to `CC(=O)[C@H]1CC[C@H]2[C@@H]3CC[C@H]4C[C@@](O)(C#CCC(C)O)CC[C@]4(C)[C@H]3CC[C@]12C` (mixture of isomers) [3β-[4'(R/S)-hydroxy-1'-pentynyl]-3α-hydroxy-5α-pregnan-20-one], the IC50 came out at 178 nM and the IMAX is 101%.

`C[C@]12CC[C@@H](O)C[C@H]1CC[C@@H]1[C@@H]2CC[C@]2(C)[C@@H](C(=O)Cn3cnc([N+](=O)[O-])c3)CC[C@@H]12` [3a-hydroxy-21-[1H-(4-nitro)imidazol-1-yl)-5β-pregnan-20-one]: the IC50 amounted to 267 nM and the IMAX turned out to be 71%.

Molecule `CC12CC(N3CCOCC3)C(O)CC1CCC1C2CCC2(C)C(C(=O)Cn3cncn3)CCC12` (stereo not drawn) [3α-Hydroxy-2β-morpholinyl-21-[1'2'4'-triazolyl)]-5α-pregnan-20-one] returned an IC50 of 1550 nM and an IMAX of 97%.

The molecule `CC(=O)[C@H]1CC[C@H]2[C@@H]3CC[C@@H]4C[C@@](O)(CCc5ccccc5)CC[C@]4(C)[C@H]3CC[C@]12C` [3α-Hydroxy-3β-(2'-phenylethyl)-5β-pregnan-20-one] came in with an IC50 of 135 nM and an IMAX of 98%.

Molecule `CC(=O)C#C[C@@]1(O)CC[C@@]2(C)[C@H](CC[C@@H]3[C@@H]2CC[C@]2(C)[C@@H](C(C)=O)CC[C@@H]32)C1` [3α-Hydroxy-3β-(3'-oxobutynyl)-5β-pregnan-20-one] returned an IC50 of 2690 nM and an IMAX of 107%.

In the case of `CC(=O)C1CCC2C3CCC4CC(O)(C#CC=O)CCC4(C)C3CCC12C` (stereo not drawn) [3α-Hydroxy-3β-(3'-oxopropynyl)-5β-pregnan-20-one], the IC50 is 1720 nM and the IMAX was determined as 76%.

In turn, `CC(=O)[C@H]1CC[C@H]2[C@@H]3CC[C@@H]4C[C@@](O)(C#CCc5ccccc5)CC[C@]4(C)[C@H]3CC[C@]12C` [3α-Hydroxy-3β-(3'-phenyl-1'-propynyl)-5β-pregnan-20-one] had an IC50 of 103 nM and an IMAX of 95%.

In the case of `CC(=O)[C@H]1CC[C@H]2[C@@H]3CC[C@@H]4C[C@@](O)(CCCc5ccccc5)CC[C@]4(C)[C@H]3CC[C@]12C` [3α-Hydroxy-3β-(3'-phenylpropyl)-5β-pregnan-20-one], the IC50 came to 173 nM and the IMAX is given as 92%.

Regarding `CC12CCC(O)(C#CCO)CC1CCC1C2CCC2(C)C(C(=O)Cn3nccn3)CCC12` (stereo not drawn) [3α-Hydroxy-3β-(3-hydroxypropyn-1-yl)-21-(1,2,3-triazol-2-yl)-5β-pregnan-20-one], the IC50 is 430 nM and the IMAX turned out to be 107%.

Turning to `COCC#C[C@@]1(O)CC[C@@]2(C)[C@H](CC[C@@H]3[C@@H]2CC[C@]2(C)[C@@H](C(C)=O)CC[C@@H]32)C1` [3α-Hydroxy-3β-(3-methoxy-1-propynyl)-5β-pregnan-20-one], the IMAX was found to be 105%.

Turning to `CC(=O)[C@H]1CC[C@H]2[C@@H]3CC[C@@H]4C[C@@](O)(C#Cc5cccnc5)CC[C@]4(C)[C@H]3CC[C@]12C` [3α-Hydroxy-3β-(3-pyridyl)ethynyl-5β-pregnan-20-one], the IC50 was 138 nM and the IMAX is given as 100%.

Turning to `C[C@]12CC[C@H]3[C@@H](CC[C@@H]4C[C@@](O)(C#CCCO)CC[C@@H]43)[C@@H]1CC[C@@H]2C(=O)Cn1ccnc1` [3α-Hydroxy-3β-(4-hydroxybutyn-1-yl)-21-(1-imidazolyl)-5β-19-norpregnan-20-one], the IC50 came out at 98 nM and the IMAX was determined as 98%.

`C[C@]12CC[C@](O)(C#CCCO)C[C@H]1CC[C@@H]1[C@@H]2CC[C@]2(C)[C@@H](C(=O)Cn3ccnc3)CC[C@@H]12` [3α-Hydroxy-3β-(4-hydroxybutyn-1-yl)-21-(1-imidazolyl)-5β-pregnan-20-one] had an IC50 of 54 nM and an IMAX of 93%.

On to `CC(=O)[C@H]1CC[C@H]2[C@@H]3CC[C@@H]4C[C@@](O)(C#Cc5ccncc5)CC[C@]4(C)[C@H]3CC[C@]12C` [3α-Hydroxy-3β-(4-pyridyl)ethynyl-5β-pregnan-20-one], for which the IC50 came out at 149 nM and the IMAX turned out to be 103%.

With `CC(=O)C1CCC2C3CCC4CC(O)(C#CCn5cncn5)CCC4(C)C3CCC12C` (stereo not drawn) [3α-Hydroxy-3β-[3'-(1H-1,2,4,-triazol-1yl)-1'-propynyl]-5β-pregnan-20-one], the IC50 worked out at 843 nM and the IMAX turned out to be 99%.

`CC(=O)[C@H]1CC[C@H]2[C@@H]3CC[C@@H]4C[C@@](O)(C#CCn5ccnc5)CC[C@]4(C)[C@H]3CC[C@]12C` [3α-Hydroxy-3β-[3'-(N-imidazolyl)-1'-propynyl)-5β-pregnan-20-one] yielded an IC50 of 2720 nM and an IMAX of 107%.

As for `CC(=O)C#C[C@@]1(O)CC[C@@]2(C)[C@@H](CC[C@@H]3[C@@H]2CC[C@]2(C)[C@@H](C(C)=O)CC[C@@H]32)C1` [3α-Hydroxy-3β-[3'-oxobutynyl]-5α-pregnan-20-one], the IC50 is 6510 nM and the IMAX is given as 104%.

`CC(=O)C1CCC2C3CCC4CC(O)(C#CCn5nccn5)CCC4(C)C3CCC12C` (stereo not drawn) [3α-Hydroxy-3β-[3-(2'H-1,2,3-triazol-2'-yl)-1-propynyl]-5β-pregnan-20-one] returned an IC50 of 66 nM and an IMAX of 98%.

`CC(=O)CCC#C[C@@]1(O)CC[C@@]2(C)[C@H](CC[C@@H]3[C@@H]2CC[C@]2(C)[C@@H](C(C)=O)CC[C@@H]32)C1` [3α-Hydroxy-3β-[5-oxo-1-hexynyl]-5β-pregnan-20-one] registered an IC50 of 118 nM and an IMAX of 101%.

In turn, `CC(=O)[C@H]1CC[C@H]2[C@@H]3CC[C@@H]4C[C@@](O)(c5ccccc5)CC[C@]4(C)[C@H]3CC[C@]12C` [3α-Hydroxy-3β-phenyl-5β-pregnan-20-one, 3α-hydroxy-3β-phenyl-5β-pregnan-20-one] gave an IC50 of 382 nM and an IMAX of 86%.

The molecule `C[C@]12CC[C@@H](O)C[C@H]1CC[C@@H]1[C@@H]2CC[C@]2(C)[C@@H](C(=O)Cn3cncn3)CC[C@@H]12` [3α-Hydroxy-21-(1',2',4'-triazol-1-yl)-5β-pregnan-20-one] showed an IMAX of 60%.

Take `C[C@]12CC[C@@H](O)C[C@H]1CC[C@@H]1[C@@H]2CC[C@]2(C)[C@@H](C(=O)Cn3ccnc3)CC[C@@H]12` [3α-Hydroxy-21-(1'-imidazolyl)-5β-pregnan-20-one]: the IC50 worked out at 73 nM and the IMAX stood at 57%.

Molecule `C[C@]12CC[C@@H](O)C[C@@H]1CC[C@@H]1[C@@H]2CC[C@]2(C)[C@@H](C(=O)Cn3ccc(=O)[nH]c3=O)CC[C@@H]12` [3α-Hydroxy-21-(1'-uracil)-5α-pregnan-20-one] displayed an IC50 of 434 nM and an IMAX of 90%.

With `C[C@]12CC[C@@H](O)C[C@H]1CC[C@@H]1[C@@H]2CC[C@]2(C)[C@@H](C(=O)Cn3ncnn3)CC[C@@H]12` [3α-Hydroxy-21-(2'H-1,2,3,4-tetrazol-2'-yl)-5β-pregnan-20-one], the IC50 was found to be 46 nM and the IMAX is on record as 78%.

In turn, `CC12CCC(O)(C#CCO)CC1CCC1C2CCC2(C)C(C(=O)Cn3ccnn3)CCC12` (stereo not drawn) [3α-hydroxy-3β-(3-hydroxypropyn-1-yl)-21-(1,2,3-triazol-1-yl)-5β-pregnan-20-one] registered an IC50 of 1090 nM and an IMAX of 101%.

For `CC(=O)OCC(=O)c1ccc(C#C[C@@]2(O)CC[C@@]3(C)[C@H](CC[C@@H]4[C@@H]3CC[C@]3(C)[C@@H](C(C)=O)CC[C@@H]43)C2)cc1` [3α-hydroxy-3β-(4'-acetoxyacetylphenylethynyl)-5β-pregnan-20-one], the IC50 came to 171 nM and the IMAX is on record as 91%.

Turning to `CCOC(=O)c1ccc(C#C[C@@]2(O)CC[C@@]3(C)[C@H](CC[C@@H]4[C@@H]3CC[C@]3(C)[C@@H](C(C)=O)CC[C@@H]43)C2)cc1` [3α-hydroxy-3β-(4'-carboxyphenylethynyl)-5β-pregnan-20-one ethyl ester], the IMAX came out at 98%.

In turn, `CC(=O)[C@H]1CC[C@H]2[C@@H]3CC[C@@H]4C[C@@](O)(C#Cc5ccc(C(F)(F)F)cc5)CC[C@]4(C)[C@H]3CC[C@]12C` [3α-hydroxy-3β-(4'-trifluoromethylphenylethynyl)-5β-pregnan-20-one] had an IC50 of 52 nM and an IMAX of 87%.

Molecule `C[C@]12CC[C@](O)(C#CCCO)C[C@H]1CC[C@@H]1[C@@H]2CC[C@]2(C)[C@@H](C(=O)Cn3ccnn3)CC[C@@H]12` [3α-hydroxy-3β-(4-hydroxybutyn-1-yl)-21-(1,2,3-triazol-1-yl)-5β-pregnan-20-one] displayed an IC50 of 79 nM and an IMAX of 96%.

Turning to `CC12CCC(O)(C#CCCO)CC1CCC1C2CCC2(C)C(C(=O)Cn3cncn3)CCC12` (stereo not drawn) [3α-hydroxy-3β-(4-hydroxybutyn-1-yl)-21-(1,2,4-triazol-1-yl)-5β-pregnan-20-one], the IMAX was 96%.
